Measurements: article PMC8887546, “Design and Synthesis of Brain Penetrant Glycopeptide Analogues of PACAP With Neuroprotective Potential for Traumatic Brain Injury and Parkinsonism” (Frontiers in drug discovery, 2022)

Assays:
Type in all cases: cell-based
human PAC1 receptor = target: T1, human PAC1 receptor (Homo sapiens, UniProt P41586); test: cAMP stimulation in CHO cells expressing PAC1; settings: for Emax: CHO
T1 construct: expressed in transfected cells; host or cells: CHO cells (G418 selection)
T1 sequence (P41586 21-468): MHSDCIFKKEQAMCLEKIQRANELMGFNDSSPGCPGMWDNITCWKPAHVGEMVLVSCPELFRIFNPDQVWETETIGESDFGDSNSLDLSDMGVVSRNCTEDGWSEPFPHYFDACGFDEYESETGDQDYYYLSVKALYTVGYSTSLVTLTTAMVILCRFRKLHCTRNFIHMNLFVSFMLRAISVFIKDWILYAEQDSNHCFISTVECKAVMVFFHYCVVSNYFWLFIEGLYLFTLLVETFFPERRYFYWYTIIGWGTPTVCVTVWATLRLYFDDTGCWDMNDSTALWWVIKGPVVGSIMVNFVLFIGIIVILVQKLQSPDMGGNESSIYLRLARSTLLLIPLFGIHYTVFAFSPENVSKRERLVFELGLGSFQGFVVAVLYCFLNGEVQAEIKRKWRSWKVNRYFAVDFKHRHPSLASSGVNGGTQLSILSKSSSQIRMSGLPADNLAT
Method: (§1) Briefly, human PAC1, VPAC1, and VPAC2 receptors expressed in CHO cells were used for all experiments. Cells were grown in 50:50 DMEM-F12 medium with 10% heat-inactivated fetal bovine serum, 1X penicillin-streptomycin supplement, and 500 μg/ml G418 (neomycin) to maintain selection (all from ThermoFisher) at 37°C with 5% CO2 atmosphere. For the cAMP assay, cells were seeded at 20,000 cells/well in a 96 well plate, recovered overnight, then serum starved for 4 h. The cells were then incubated with 500 μM IBMX for 20 min, followed by agonist concentration curves in 500 μM IBMX media for 10 min. The reaction was terminated, boiled, then collected, followed by competition with 7 μg of bovine protein kinase A (Sigma-Aldrich) and ∼1 pmol of ^3H-cAMP (PerkinElmer). The assay was incubated at room temp for 1 h, then collected onto GF/B filter plates and the data read using a MicroBeta2 scintillation counter (PerkinElmer).

human VPAC1 receptor = target: T2, human VPAC1 receptor (Homo sapiens, UniProt P32241); test: cAMP stimulation in CHO cells expressing VPAC1; settings: for Emax: CHO, read-out: VPAC1 Emax; for EC50: read-out: VPAC1 EC50; for Receptor selectivity ratio VPAC1/PAC1: ratio of cAMP EC50 values
T2 construct: expressed in transfected cells; host or cells: CHO cells (G418 selection)
T2 sequence (P32241 31-457): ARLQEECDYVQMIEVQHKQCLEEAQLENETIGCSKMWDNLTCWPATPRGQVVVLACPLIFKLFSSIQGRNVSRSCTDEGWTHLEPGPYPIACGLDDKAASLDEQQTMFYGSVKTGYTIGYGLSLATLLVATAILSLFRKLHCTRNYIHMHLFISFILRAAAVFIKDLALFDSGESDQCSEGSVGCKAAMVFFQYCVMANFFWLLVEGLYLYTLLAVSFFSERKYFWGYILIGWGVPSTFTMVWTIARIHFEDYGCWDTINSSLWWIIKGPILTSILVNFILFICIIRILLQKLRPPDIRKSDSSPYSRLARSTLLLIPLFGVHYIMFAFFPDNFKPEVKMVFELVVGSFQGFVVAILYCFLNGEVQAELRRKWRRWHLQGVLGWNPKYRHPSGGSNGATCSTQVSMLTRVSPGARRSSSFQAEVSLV

human VPAC2 receptor = target: T3, human VPAC2 receptor (Homo sapiens, UniProt P41587); test: cAMP stimulation in CHO cells expressing VPAC2; settings: for Emax: CHO; for Receptor selectivity ratio VPAC2/PAC1 / Receptor selectivity ratio VPAC2/VPAC1: ratio of cAMP EC50 values
T3 construct: expressed in transfected cells; host or cells: CHO cells (G418 selection)
T3 sequence (P41587 24-438): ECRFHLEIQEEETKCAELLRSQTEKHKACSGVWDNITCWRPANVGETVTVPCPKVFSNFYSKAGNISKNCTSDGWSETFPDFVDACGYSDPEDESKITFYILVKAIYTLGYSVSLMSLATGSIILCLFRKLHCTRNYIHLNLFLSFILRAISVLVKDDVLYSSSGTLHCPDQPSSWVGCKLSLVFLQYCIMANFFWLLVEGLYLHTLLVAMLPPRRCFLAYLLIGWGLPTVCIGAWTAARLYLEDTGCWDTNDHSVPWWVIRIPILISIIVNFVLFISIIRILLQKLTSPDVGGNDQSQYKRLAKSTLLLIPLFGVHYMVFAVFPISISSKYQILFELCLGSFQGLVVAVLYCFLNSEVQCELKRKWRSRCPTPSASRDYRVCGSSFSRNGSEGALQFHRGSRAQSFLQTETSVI
Method: as §1

Row | SMILES | Emax (human PAC1 receptor) [%] | Emax (human VPAC1 receptor) [%] | Emax (human VPAC2 receptor) [%] | EC50 (human PAC1 receptor) [nM] | EC50 (human VPAC1 receptor) [nM] | EC50 (human VPAC2 receptor) [nM] | Selectivity for VPAC1 over PAC1 (human VPAC1 receptor; from cAMP EC50 values) [fold] | Receptor selectivity ratio VPAC1/PAC1 (human VPAC1 receptor) | Receptor selectivity ratio VPAC2/PAC1 (human VPAC2 receptor) | Receptor selectivity ratio VPAC2/VPAC1 (human VPAC2 receptor)
1 | CCC[C@H](NC(=O)[C@H](CCC(N)=O)NC(=O)[C@H](CCCCN)NC(=O)[C@H](CCCNC(=N)N)NC(=O)[C@H](Cc1ccc(O)cc1)NC(=O)[C@H](CCCNC(=N)N)NC(=O)[C@H](CO)NC(=O)[C@H](Cc1ccc(O)cc1)NC(=O)[C@H](CO)NC(=O)[C@H](CC(=O)O)NC(=O)[C@@H](NC(=O)[C@H](Cc1ccccc1)NC(=O)[C@@H](NC(=O)[C@@H](C)NC(=O)[C@H](CC(=O)O)NC(=O)[C@@H](CO)NC(=O)[C@H](Cc1c[nH]cn1)NC(C)=O)[C@@H](C)CC)[C@@H](C)O)C(=O)N[C@@H](C)C(=O)N[C@H](C(=O)N[C@@H](CCCCN)C(=O)N[C@@H](CCCCN)C(=O)N[C@@H](Cc1ccc(O)cc1)C(=O)N[C@@H](CC(C)C)C(=O)N[C@@H](C)C(=O)N[C@@H](C)C(=O)N[C@H](C(=O)N[C@@H](CC(C)C)C(=O)N[C@@H](CO[C@@H]1O[C@H](CO)[C@@H](O)[C@H](O)[C@H]1O)C(N)=O)C(C)C)C(C)C [Ac-CRA3021] | 96 | 111 | 93 | – | – | – | – | – | – | –
2 | CCC[C@H](NC(=O)[C@H](CCC(N)=O)NC(=O)[C@H](CCCCN)NC(=O)[C@H](CCCNC(=N)N)NC(=O)[C@H](Cc1ccc(O)cc1)NC(=O)[C@H](CCCNC(=N)N)NC(=O)[C@H](CO)NC(=O)[C@H](Cc1ccc(O)cc1)NC(=O)[C@H](CO)NC(=O)[C@H](CC(=O)O)NC(=O)[C@@H](NC(=O)[C@H](Cc1ccccc1)NC(=O)[C@@H](NC(=O)CNC(=O)[C@H](CC(=O)O)NC(=O)[C@@H](CO)NC(=O)[C@@H](N)Cc1c[nH]cn1)[C@@H](C)CC)[C@@H](C)O)C(=O)N[C@@H](C)C(=O)N[C@H](C(=O)N[C@@H](CCCCN)C(=O)N[C@@H](CCCCN)C(=O)N[C@@H](Cc1ccc(O)cc1)C(=O)N[C@@H](CC(C)C)C(=O)N[C@@H](C)C(=O)N[C@@H](C)C(=O)N[C@@H](CO[C@@H]1O[C@H](CO)[C@@H](O)[C@H](O)[C@H]1O)C(=O)N[C@@H](CC(C)C)C(N)=O)C(C)C [CRA3002] | -79 | 93 | – | > 250 | 5.9 | > 2500 | – | – | – | –
3 | CCC[C@H](NC(=O)[C@H](CCC(N)=O)NC(=O)[C@H](CCCCN)NC(=O)[C@H](CCCNC(=N)N)NC(=O)[C@H](Cc1ccc(O)cc1)NC(=O)[C@H](CCCNC(=N)N)NC(=O)[C@H](CO)NC(=O)[C@H](Cc1ccc(O)cc1)NC(=O)[C@H](CO)NC(=O)[C@H](CC(=O)O)NC(=O)[C@@H](NC(=O)[C@H](Cc1ccccc1)NC(=O)[C@@H](NC(=O)C(C)(C)NC(=O)[C@H](CC(=O)O)NC(=O)[C@@H](CO)NC(=O)[C@@H](N)Cc1c[nH]cn1)[C@@H](C)CC)[C@@H](C)O)C(=O)N[C@@H](C)C(=O)N[C@H](C(=O)N[C@@H](CCCCN)C(=O)N[C@@H](CCCCN)C(=O)N[C@@H](Cc1ccc(O)cc1)C(=O)N[C@@H](CC(C)C)C(=O)N[C@@H](C)C(=O)N[C@@H](C)C(=O)N[C@H](C(=O)N[C@@H](CC(C)C)C(=O)N[C@@H](CO[C@@H]1O[C@H](CO)[C@@H](O)[C@H](O)[C@H]1O)C(N)=O)C(C)C)C(C)C [CRA3011] | 68 | 91 | 99 | 784 | 34.2 | 223 | ~23 | 0.04 | 0.28 | 6.52
4 | CCC[C@H](NC(=O)[C@H](CCC(N)=O)NC(=O)[C@H](CCCCN)NC(=O)[C@H](CCCNC(=N)N)NC(=O)[C@H](Cc1ccc(O)cc1)NC(=O)[C@H](CCCNC(=N)N)NC(=O)[C@H](CO)NC(=O)[C@H](Cc1ccc(O)cc1)NC(=O)[C@H](CO)NC(=O)[C@H](CC(=O)O)NC(=O)[C@@H](NC(=O)[C@H](Cc1ccccc1)NC(=O)[C@@H](NC(=O)CCNC(=O)[C@H](CC(=O)O)NC(=O)[C@@H](CO)NC(=O)[C@@H](N)Cc1c[nH]cn1)[C@@H](C)CC)[C@@H](C)O)C(=O)N[C@@H](C)C(=O)N[C@H](C(=O)N[C@@H](CCCCN)C(=O)N[C@@H](CCCCN)C(=O)N[C@@H](Cc1ccc(O)cc1)C(=O)N[C@@H](CC(C)C)C(=O)N[C@@H](C)C(=O)N[C@@H](C)C(=O)N[C@H](C(=O)N[C@@H](CC(C)C)C(=O)N[C@@H](CO[C@@H]1O[C@H](CO)[C@@H](O)[C@H](O)[C@H]1O)C(N)=O)C(C)C)C(C)C [CRA3008] | 76 | 108 | 65 | 159 | 202 | 737 | – | 1.27 | 4.64 | 3.65
5 | CCCC[C@@H](NC(=O)CNC(=O)[C@H](CC(=O)O)NC(=O)[C@@H](CO)NC(=O)[C@H](Cc1c[nH]cn1)NC(C)=O)C(=O)N[C@@H](Cc1ccccc1)C(=O)N[C@H](C(=O)N[C@@H](CC(=O)O)C(=O)N[C@@H](CO)C(=O)N[C@@H](Cc1ccc(O)cc1)C(=O)N[C@@H](CO)C(=O)N[C@@H](CCCNC(=N)N)C(=O)N[C@@H](Cc1ccc(O)cc1)C(=O)N[C@@H](CCCNC(=N)N)C(=O)N[C@@H](CCCCN)C(=O)N[C@@H](CCC(N)=O)C(=O)N[C@@H](CCC)C(=O)N[C@@H](C)C(=O)N[C@H](C(=O)N[C@@H](CCCCN)C(=O)N[C@@H](CCCCN)C(=O)N[C@@H](Cc1ccc(O)cc1)C(=O)N[C@@H](CC(C)C)C(=O)N[C@@H](C)C(=O)N[C@@H](C)C(=O)N[C@H](C(=O)N[C@@H](CC(C)C)C(=O)N[C@@H](CO[C@@H]1O[C@H](CO)[C@@H](O)[C@H](O)[C@H]1O)C(N)=O)C(C)C)C(C)C)[C@@H](C)O [Ac-CRA 3019] | 58 | 18 | 62 | 1640 | – | > 2500 | – | – | – | –
6 | CCC[C@H](NC(=O)[C@H](CCC(N)=O)NC(=O)[C@H](CCCCN)NC(=O)[C@H](CCCNC(=N)N)NC(=O)[C@H](Cc1ccc(O)cc1)NC(=O)[C@H](CCCNC(=N)N)NC(=O)[C@H](CO)NC(=O)[C@H](Cc1ccc(O)cc1)NC(=O)[C@H](CO)NC(=O)[C@H](CC(=O)O)NC(=O)[C@@H](NC(=O)[C@H](Cc1ccccc1)NC(=O)[C@@H](NC(=O)[C@@H](C)NC(=O)[C@H](CC(=O)O)NC(=O)[C@@H](CO)NC(=O)[C@@H](N)Cc1c[nH]cn1)[C@@H](C)CC)[C@@H](C)O)C(=O)N[C@@H](C)C(=O)N[C@H](C(=O)N[C@@H](CCCCN)C(=O)N[C@@H](CCCCN)C(=O)N[C@@H](Cc1ccc(O)cc1)C(=O)N[C@@H](CC(C)C)C(=O)N[C@@H](C)C(=O)N[C@@H](C)C(=O)N[C@H](C(=O)N[C@@H](CC(C)C)C(=O)N[C@@H](CO[C@@H]1O[C@H](CO)[C@@H](O)[C@H](O)[C@H]1O)C(N)=O)C(C)C)C(C)C [CRA3021] | 90 | 103 | 74 | 32.3 | 37.7 | 517 | – | 1.17 | 16.01 | 13.71
